Source: patent publication US12201679B2, “Epitope-targeted peptide immunostimulants” (priority 2019, dated 2025)
Entries after “also recorded” stand apart in the source; their conditions may differ. Bridge positions count the residues as written; N and C are the ends. Square brackets hold non-standard residues; d marks the D form. Triazole bridges read from a SMILES are 1,4-linked. Ends that are not written are not given here. Peptide text beside a SMILES is read from it. Lys(N3) = [N-]=[N+]=NCCCC[C@H](N)C(=O)O; Pra = C#CC[C@H](N)C(=O)O

Key:
Salmonella typhimurium = assay: Whole-cell ELISA, biotinylated PCC, S. typhimurium; format: cell-based; settings: biotinylated PCC at 5 μM, FIG. 5C
Experimental: (§1) Whole-cell ELISA data in FIG. 5C show strong signal from the two strains of K. pneumoniae (BAA 1705 and BAA 2146) but only weak signals from Escherichia coli (E. coli) or Salmonella typhimurium (S. typhimurium) cells. […] In these tests, droplets of phosphate buffered solution containing live bacteria or heat-killed bacteria and various concentrations of (NH4)2SO4 at 10 m or 30 m following mixing were imaged. Aggregation in each droplet was assessed by visual inspection and scored as indicating non-aggregated, low levels of aggregation, or extensive aggregation. All droplets were on a single glass slide and image acquisition of all droplets took less than a minute for each 10 m and 30 m time point.
(§2) Detection of the binding of biotinylated PCCs to bacterial surface was performed as follows. 10^8 bacteria from a culture grown overnight were used for each test. Bacteria were incubated with PBS containing 1% BSA (PBS-BSA) for 1 h at 37° C., washed once with PBS, and then incubated with 5 μM of the biotinylated PCC in PBS-BSA for 1 h at 37° C. After washing thrice with PBS to remove unbound PCCs, bacteria were incubated with Streptavidin-HRP (1:1000) for 1 h at 37° C. Bacteria were washed thoroughly and the TMB reagent was added until visible coloration was observed. The reaction was quenched using 2N H2SO4 and absorbance was measured at 450 nm.

[1] = target: full-length recombinant MrkA protein (Klebsiella pneumoniae, UniProt P12267); format: binding; settings: sandwich ELISA, alanine scan and analogues
Excerpt: HPraGly is present before X1 in each peptide and Az4 follows X5 in each peptide.

Escherichia coli = assay: Whole-cell ELISA, biotinylated PCC, E. coli; format: cell-based; settings: biotinylated PCC at 5 μM, FIG. 5C
Experimental: as §1, §2

[2] = system: K. pneumoniae cells (strain BAA 1705); assay: Gentamicin protection assay: phagocytosis and opsonophagocytic killing (OPK) by macrophages; format: cell-based, Klebsiella pneumoniae
Experimental: It also tested whether DNP-conjugated EPIs could promote the opsonophagocytic killing (OPK) of K. pneumoniae by macrophages. This was tested by using an OPK assay. Briefly, K. pneumoniae cells were treated with EPI and then anti-DNP antibody before being exposed to macrophages for either 6 or 24 hours. During this incubation period, macrophages that recognize K. pneumoniae cells will phagocytose them, and phagocytosed bacteria will remain viable for up to 6 hours, but within 24 hours are rendered inviable by OPK. Thus, macrophages were isolated after 6 and 24 hours of incubation with K. pneumoniae, lysed them, and plated and grew the lysate, which yielded bacterial colonies that reflect the phagocytosis (at 6 hrs) or OPK (at 24 hrs) of bacteria.
Given that cy(LLFFF)-DNP (SEQ ID NO:5) recruits antibodies to K. pneumoniae surfaces, it was expected that K. pneumoniae opsonized in this manner would be more susceptible to phagocytosis by macrophages. AR-PCC-driven phagocytosis and OPK were quantified by a gentamicin protection assay, as depicted in FIG. 7A. For this assay, K. pneumoniae cells (strain BAA 1705) were treated with cy(LLFFF)-DNP (SEQ ID NO:5), opsonized by anti-DNP antibodies, and then incubated with murine bone-marrow-derived macrophages (BMDMs). BMDMs were subsequently exposed to a solution containing gentamicin, to which K. pneumoniae strain BAA 1705 is susceptible, to kill any extracellular bacteria. Phagocytosed bacteria remain viable inside BMDMs for at least 1 h, yet are rendered inviable after 24 h by OPK (FIG. 13). Macrophages harvested at 1 h and 24 h were lysed and plated to generate bacterial colonies, which were enumerated to quantify phagocytosis and OPK.
Klebsiella pneumoniae BAA1705 was treated with DNP-PCCs followed by incubation with anti-DNP antibody, as described above in the “Cell-Based ELISAs” section. These opsonized bacteria were then used to infect BMDMs at a multiplicity of infection of 50 for 0.5 h at 37° C. Bacteria were then washed by using RPMI 1640 Media and BMDMs were left in cell culture medium containing gentamicin (100 μg/ml). After 1 h and 24 h BMDMs were washed to remove gentamicin and intracellular bacteria were harvested by lysing BMDMs in RPMI media containing 0.2% Triton X 100. Bacterial CFUs were enumerated by plating onto LB agar. Bacterial counts at 1 h indicated the degree of opsonization while those at 24 h served as a measure of microbicidal activity of macrophages. For these measurements, anti-MrkA antibody and K. pneumoniae antiserum were used at dilutions of 5 μg/mL each.

[3] = system: MrkA-knockout KPPR1 cells; assay: Whole-cell ELISA, biotinylated PCC, MrkA-knockout KPPR1; format: cell-based, Klebsiella pneumoniae
Experimental: ELISA signals were only observed for K. pneumoniae cells (strain BAA 1705) cultured in G-CAA (FIG. 11A), when treated with PCCs at concentrations of 5 μM or lower.
as §2

SynEp 1 = SynEp 1 (Klebsiella pneumoniae, UniProt P12267, V41X); assay: Epitope selectivity sandwich ELISA, immobilized SynEp 1; settings: DNP-conjugated ligand at 500 nM, background biotin-PEG6
[4] = system: wild type KPPR1 (ATCC 43816) cells; assay: Whole-cell ELISA, biotinylated PCC, wild type KPPR1; format: cell-based, Klebsiella pneumoniae; settings: biotinylated PCC 5 μM down to 5 nM, G-CAA media
Experimental: In this assay, bacteria are exposed to biotinylated PCC ligands, then SAv-horseradish peroxidase (SAv-HRP), and then developed to produce a colorometric signal that correlates with SAv-HRP binding.
Whole-cell ELISA assays were conducted on the wild type version of the clinically-relevant strain of K. pneumoniae, KPPR1 (ATCC 43816). Wild type KPPR1 cells were cultured in G-CAA media to promote fimbrial expression (54), and MrkA expression in KPPR1 was confirmed by a western blot (FIG. 5B inset, full blot in FIG. 9).
as §2

[5] = system: K. pneumoniae (strains BAA 1705 & 2146); assay: Whole-cell ELISA, biotinylated PCC, multidrug-resistant K. pneumoniae; format: cell-based, Klebsiella pneumoniae; settings: for whole-cell ELISA binding at high PCC concentration: strain BAA 1705, 50 μM PCC, LB or G-CAA; for whole-cell ELISA 450 nm absorbance, cells cultured in G-CAA (high MrkA) / whole-cell ELISA 450 nm absorbance, cells cultured in LB (low MrkA): strain BAA 1705, PCC 5 μM to 5 nM
Experimental: as §2, with “Bacteria were incubated with PBS containing 1% BSA (PBS-BSA) for 1 h at 37° C., washed once with PBS, and then incubated with 5 μM of the biotinylated PCC in PBS-BSA for 1 h at 37° C.” left out

[6] = system: K. pneumoniae cells, BAA 1705 and BAA 2146; assay: Whole-cell ELISA, anti-DNP recruitment to bacterial cell surfaces; format: cell-based, Klebsiella pneumoniae; settings: cy(LLFFF)-DNP 5 or 10 μM; dummy cy(HNGPT)-DNP 50 and 100 μM; plus anti-DNP
Experimental: FIG. 12 is a plot of 450 nm absorbances obtained from a cell-based ELISA assay conducted on two strains of K. pneumoniae cells, BAA 1705 (black) and BAA 2146 (orange), that were either untreated or opsonized by EPIs (AR-PCCs) and/or antibodies. […] This establishes EPI-driven opsonization by cy(LLFFF)-DNP (SEQ ID NO:5).
The protocol for detecting anti-DNP recruitment to bacterial cell surfaces is as follows. Bacteria were incubated with the desired concentration of DNP-conjugated PCCs in PBS-BSA for 1 h at 37° C. Residual PCCs were washed off by using PBS-BSA and bacteria were incubated with anti-DNP antibody (1:1000) for 1 h at 37° C. After washing, bacteria were incubated with HRP conjugated secondary antibody (Bio-Rad) at a dilution of 1:10,000 for 1 h at 37° C. Unbound antibody was washed off by using PBS-BSA and the cells were then developed by using TMB reagent. The reaction was quenched using 2N H2SO4 and absorbance was measured at 450 nm. Anti-MrkA antibody was procured from Biorbyt (orb51318) and used at a concentration of 5 μg/mL, and K. pneumoniae antiserum was obtained from abcam (ab20947) and used at a concentration of 5 μg/mL.

[7] = system: K. pneumoniae cells (strain BAA 2146); assay: Flow cytometry, recruitment of fluorescent anti-DNP antibodies; format: cell-based, Klebsiella pneumoniae; settings: 50 μM AR-PCC plus Alexafluor 488 anti-DNP
[8] = system: live MRSA cells or heat-killed MRSA cells; assay: ELISA, PCC-driven SAv-HRP recruitment to MRSA cells; format: cell-based, Staphylococcus aureus; settings: biotinylated PCC, with or without 0.4 micrograms/mL tunicamycin
Experimental: FIG. 16A-16B are graphs showing PCC-driven recruitment of streptavidin-horseradish peroxidase (SAv-HRP) conjugate to live MRSA cells (FIG. 16A) or heat-killed MRSA cells (FIG. 16B) cultured under different antibiotic conditions via enzyme-linked Immunosorbent Assays (ELISAs). All tests were conducted by coating the antigen (MRSA cells) onto the wells of 96-well plates and then exposing the wells solutions containing biotinylated PCCs, then SAv-HRP, then HRP substrate followed by detection via absorbance at 450 nm. Absorbance values greater than the “no PCC” background indicate that several PCCs recruit SAv-HRP to either live cells (FIG. 16A) or heat-killed cells (FIG. 16B) cultured either without antibiotic (“−tunicamycin”, blue bars) or with 0.4 micrograms/mL of tunicamycin (“+tunicamycin”, red), which reduces the expression of wall teichoic aids by MRSA. All measurements were conducted in triplicate and error bars reflect standard deviations. The PCC sequences are, from left to right in both graphs, SEQ ID NOs: 6, 23, 34, and 29.
The recruitment ability of selected PCCs was assessed by PCC-driven recruitment of streptavidin-horseradish peroxidase (SAv-HRP) conjugate to live MRSA cells (FIG. 16A) or heat-killed MRSA cells (FIG. 16B) cultured under different antibiotic conditions via enzyme-linked Immunosorbent Assays (ELISAs). […]

CC(C)C[C@@H]1NC(=O)[C@H](CC(C)C)NC(=O)[C@@H](N)Cc2cn(nn2)CCCC[C@@H](C(=O)O)NC(=O)[C@H](Cc2ccccc2)NC(=O)[C@H](Cc2ccccc2)NC(=O)[C@H](Cc2ccccc2)NC1=O [cy(LLFFF)] (H-[Pra]LLFFF[Lys(N3)]-OH; triazole 1-7)
whole-cell ELISA signal, S. typhimurium (Salmonella typhimurium): small absorbances; also recorded: weak signals | binding to full-length MrkA compared to cy(LLFFF) [1]: highest affinity | whole-cell ELISA signal, E. coli (Escherichia coli): small absorbances; also recorded: weak signals | CFU, DNP-conjugated EPI plus anti-DNP, macrophages harvested at 6 hrs ([2]; 6 hrs): more than 80,000 CFU | cell counts, DNP-conjugated EPI only (no antibody), macrophages harvested at 6 hrs ([2]; 6 hrs): ~35,000 | cell counts at 24 h (OPK) ([2]; 24 h of incubation): little to no cell counts | whole-cell ELISA signal, MrkA-knockout KPPR1 [3]: comparable to baseline; also recorded: but not MrkA-knockout KPPR1 | ELISA signal on SynEp 1 (SynEp 1): Negative signals | whole-cell ELISA signal, wild type KPPR1 [4]: strong signals; also recorded: binds wild type MrkA-expressing KPPR1 cells | whole-cell ELISA binding at high PCC concentration [5]: bound K. pneumoniae cells regardless of MrkA-expression level; also recorded: strong and comparable ELISA signals | whole-cell ELISA 450 nm absorbance, cells cultured in G-CAA (high MrkA) [5]: strong absorbances | whole-cell ELISA 450 nm absorbance, cells cultured in LB (low MrkA) [5]: near-baseline absorbances | binding selectivity towards MrkA-expressing K. pneumoniae cells versus E. coli and S. typhimurium ([5]; whole-cell ELISA, FIG. 5C): excellent binding selectivity | 450 nm absorbance, anti-DNP opsonization of K. pneumoniae [6]: much larger signal

cy(HNGPT)-DNP (cyclo(HNGPT); also: DNP label) [reference compound]
fluorescence intensity of cells (predominantly) [7]: < 1.0×10^1 intensity | 450 nm absorbance, anti-DNP opsonization of K. pneumoniae [6]: Much smaller signals

cy(LLFFA) (cyclic)
whole-cell ELISA signal, S. typhimurium (Salmonella typhimurium): low signals | whole-cell ELISA signal, E. coli (Escherichia coli): low signals | colony counts at 1 h, EPI plus anti-DNP antibody ([2]; 5 μM AR-PCC, murine BMDMs, 1 h): 85,000 CFU | whole-cell ELISA signal, MrkA-knockout KPPR1 [3]: comparable to baseline; also recorded: Much lower binding | whole-cell ELISA signal, wild type KPPR1 [4]: much lower intensities; also recorded: Much lower binding | whole-cell ELISA signal, K. pneumoniae BAA 1705 and BAA 2146 ([5]; biotinylated PCC at 5 μM, FIG. 5C): low signals; also recorded: no or minimal binding above baseline | whole-cell ELISA binding at high PCC concentration [5]: bound K. pneumoniae cells regardless of MrkA-expression level; also recorded: strong and comparable ELISA signals | whole-cell ELISA 450 nm absorbance, cells cultured in G-CAA (high MrkA) [5]: near-baseline absorbances | whole-cell ELISA 450 nm absorbance, cells cultured in LB (low MrkA) [5]: near-baseline absorbances

cy(akkrp) ([dA][dK][dK][dR][dP]; not fully specified (bridges); printed as cy(akkrp); also: cyclic, closure not given here)
SAv-HRP recruitment to MRSA cells [8]: Standout recruiting peptides

cy(kpdew) ([dK][dP][dD][dE][dW]; not fully specified (bridges); printed as cy(kpdew); also: cyclic, closure not given here)
SAv-HRP recruitment to MRSA cells [8]: Standout recruiting peptides
